Data published in article PMC12131788, “Discovery of natural CdnP inhibitors through structure-based virtual screening and molecular dynamics simulations” (Microbiology Spectrum, 2025).

Columns and labels:
CdnP [1] = target: T1, CdnP (Mycobacterium tuberculosis, UniProt P71615); details: cited from earlier work
CdnP (Rv2837c) = target: T2, CdnP (Rv2837c) (Mycobacterium tuberculosis, UniProt P71615); test: High-throughput enzymatic activity assay (coralyne/c-di-AMP fluorescence); type: biochemical; details: for IC50: 100 nM CdnP, 15 µM c-di-AMP, 37°C, read-out: IC50 (half maximal inhibitory concentration); for inhibitory activity against CdnP: at concentrations as high as 1 mM (data not shown)
T2 construct: pET32a vector-encoded fusion (Trx / His6 / S-tag; composition from own knowledge of the vector, His tag consistent with Ni-NTA purification) (N); made in house; host or cells: Escherichia coli BL21(DE3)
T2 sequence (P71615 whole entry, the tested form may be a part): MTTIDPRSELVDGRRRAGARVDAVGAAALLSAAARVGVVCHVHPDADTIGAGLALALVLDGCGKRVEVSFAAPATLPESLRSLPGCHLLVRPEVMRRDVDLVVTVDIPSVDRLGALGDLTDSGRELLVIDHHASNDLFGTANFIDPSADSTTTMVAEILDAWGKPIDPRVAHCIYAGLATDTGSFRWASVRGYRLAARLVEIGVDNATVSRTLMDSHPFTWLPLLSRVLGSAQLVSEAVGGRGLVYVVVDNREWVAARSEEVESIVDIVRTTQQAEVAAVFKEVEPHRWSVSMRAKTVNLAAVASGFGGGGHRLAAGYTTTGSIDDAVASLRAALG

CdnP [2] = target: T1, CdnP; test: Surface plasmon resonance (SPR) binding assay; details: for kon: read-out: 1:1 binding ka
Experimental: Binding affinity between CdnP and test compounds was determined using a Biacore 1K instrument (Cytiva). Recombinant CdnP was immobilized on a Series S CM5 sensor chip according to manufacturer’s protocols. Association and dissociation kinetics were measured using a pre-established multi-cycle kinetics/affinity protocol with eight serially diluted compound concentrations in running buffer (10 mM HEPES, pH 7.4, 150 mM NaCl, 3 mM EDTA, 0.005% [vol/vol] Surfactant P20, and 5% [vol/vol] DMSO). Binding data were analyzed using the multi-cycle kinetics model to determine association rate (Ka), dissociation rate (Kd), and equilibrium dissociation constant (KD) values.

[3] = 1:1 binding, multi-cycle kinetics

T1 sequence (P71615 whole entry, looked up): as the sequence (P71615 whole entry, the tested form may be a part) above

Row | SMILES | IC50 (CdnP [1]) [µM] | IC50 (CdnP (Rv2837c)) [µM] | Quality kinetics Chi^2 (CdnP [2]) [RU^2] | Rmax (CdnP [2]) [RU] | kd (CdnP [2]) [s⁻¹] | tc (CdnP [2]) | Kd (CdnP [2]) [µM] | Kd (CdnP [2]; [3]) [µM] | kon (CdnP [2]) [M⁻¹ s⁻¹] | inhibitory activity against CdnP (CdnP (Rv2837c)) | inhibition of CdnP (CdnP [1])
1 | CC(OCCCCOC(C)n1cnc2c(=O)[nH]cnc21)n1cnc2c(=O)[nH]cnc21 (stereo not shown) [NCI 79195] | 9.66 | – | – | – | – | – | – | – | – | – | –
2 | COc1ccc(-c2cc(=O)c3c(O)cc(O[C@@H]4O[C@H](CO)[C@@H](O)[C@H](O)[C@H]4O[C@@H]4O[C@@H](C)[C@H](O)[C@@H](O)[C@H]4O)cc3o2)cc1O [Neodiosmin] | – | 5.5 ± 1.94 | 8.92e-02 | 26.8 | 0.00229 | 1.17e+08 | 380 | 384 | 5.95 | – | –
3 | COc1ccc([C@]2(C#N)CC[C@@H](C(=O)O)CC2)cc1OC1CCCC1 [Cilomilast, reference compound] | – | > 1000 | 3.17e-01 | 1733.5 | 0.465 | 6.30e+06 | – | 44200 | 10.5 | no detectable inhibitory activity | mild inhibition
4 | Cc1cc(O)c2c3c1C(=O)C1c4c(c(O)cc5cc(O)cc(C)c45)[C@@]3(COC2=O)[C@H]1O [Macrosporusone A] | – | 16.8 ± 0.44 | 2.46e+00 | – | 1.62e-07 | 1.02e+08 | – | – | 254000 | – | –
5 | C[C@@H]1O[C@@H](O[C@H]2[C@H](Oc3cc(O)c4c(=O)cc(-c5ccc(O)cc5)oc4c3)O[C@H](CO)[C@@H](O)[C@@H]2O)[C@H](O)[C@H](O)[C@H]1O [Rhoifolin] | – | 20.3 ± 1.74 | 2.02e-01 | – | 0.209 | 1.49e+08 | 0.97 | 0.972 | 215000 | – | –
6 | C[C@@H]1O[C@@H](OC[C@H]2O[C@@H](Oc3cc(O)c4c(=O)cc(-c5ccc(O)cc5)oc4c3)[C@H](O[C@@H]3O[C@@H](C)[C@H](O)[C@@H](O)[C@H]3O)[C@@H](O)[C@@H]2O)[C@H](O)[C@H](O)[C@H]1O [Ligustroflavone] | – | 39.5 ± 1.74 | 4.90e-02 | 1.0 | 6.42e-06 | 1.16e+08 | – | 0.0189 | 339 | – | –
7 | O=C1CCc2cc(OCCCCc3nnnn3C3CCCCC3)ccc2N1 [Cilostazol, reference compound] | – | > 1000 | 7.64e-02 | – | 0.321 | 5.48e+09 | – | 4.18 | 76700 | no detectable inhibitory activity | mild inhibition
8 | CCCc1nn(C)c2c(=O)[nH]c(-c3cc(S(=O)(=O)N4CCN(C)CC4)ccc3OCC)nc12 [sildenafil] | – | – | – | – | – | – | – | – | – | no detectable inhibitory activity | mild inhibition
9 | CN1CC(=O)N2[C@H](c3ccc4c(c3)OCO4)c3[nH]c4ccccc4c3C[C@@H]2C1=O [tadalafil] | – | – | – | – | – | – | – | – | – | no detectable inhibitory activity | mild inhibition
